Literature values in patent US20080292693A1, “COMPOSITION AND METHOD FOR TREATING DIGESTIVE SYSTEM DISORDERS” (priority 2007, published 2008).

Legend:
[1] = tested on: GERD
[2] = tested on: Crohn's disease; details: double-blind clinical study, daily dose of 1,000 mg

## C=C(C)[C@H]1CC=C(C)CC1 [d-Limonene]
[1]; double-blind clinical study, daily dose of 1,000 mg
  symptoms of GERD: significantly reduce
[1]; one GERD study, for up to six months without taking an additional dose
  responders free of GERD symptoms: fifty
[2]
  symptoms of Crohn's disease: significantly reduce
